Holding throughout (assay): relative viability (nuclei count vs DMSO), 5 days (fraction); higher = more cells survive
Compound in the assay “Shikonin + Trametinib”: CC(C)=CC[C@@H](O)C1=CC(=O)c2c(O)ccc(O)c2C1=O [Shikonin] + CC(=O)Nc1cccc(-n2c(=O)n(C3CC3)c(=O)c3c(Nc4ccc(I)cc4F)n(C)c(=O)c(C)c32)c1 [Trametinib] (partner 0.02 µM)
In a few lines: (§1)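 Medians of duplicate plates are given as relative viability. That measure is the nuclei count in treated wells divided by the count in vehicle wells. Counts were taken on 4× images of lung cancer cell lines in 1536-well plates, 5 days after pin-tool dosing the day after seeding with one drug alone or a fixed anchor-drug dose plus five library-drug doses (not always all listed) in √10 steps.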

Compound in assay [1]: CC(C)N(CCCNC(=O)Nc1ccc(C(C)(C)C)cc1)C[C@H]1O[C@@H](n2ccc3c(N)ncnc32)[C@H](O)[C@@H]1O + CC(C)C[C@H](NC(=O)[C@H](Cc1ccccc1)NC(=O)c1cnccn1)B(O)O [Bortezomib] (partner 0.002 µM)
The essentials:
as §1

Compound in assay [2]: CC(C)N(CCCNC(=O)Nc1ccc(C(C)(C)C)cc1)C[C@H]1O[C@@H](n2ccc3c(N)ncnc32)[C@H](O)[C@@H]1O + CCNC(=O)c1noc(-c2cc(C(C)C)c(O)cc2O)c1-c1ccc(CN2CCOCC2)cc1 [Luminespib] (partner 0.01 µM)
The essentials: as §1

Compound in assay [3]: CC(C)N(CCCNC(=O)Nc1ccc(C(C)(C)C)cc1)C[C@H]1O[C@@H](n2ccc3c(N)ncnc32)[C@H](O)[C@@H]1O + Nc1nc2[nH]cc(CCc3ccc(C(=O)N[C@@H](CCC(=O)O)C(=O)O)cc3)c2c(=O)[nH]1 [Pemetrexed] (partner 0.2 µM)
In a few lines:
as §1

This note sets out measurements from the supplement of paper PMC10307832.

As for UMC-11, the relative viability was determined as 0.573 with Shikonin + Trametinib (first compound 0.01 µM); 0.802 in the assay with Shikonin + Trametinib (first compound 0.1 µM); 0.656 with Shikonin + Trametinib (first compound 0.3162 µM); 0.793 with Shikonin + Trametinib (first compound 1 µM); 0.654 in assay [1] (first compound 0.08 µM); 0.531 in assay [1] (first compound 0.253 µM). Also, the relative viability amounted to 0.673 in assay [1] (first compound 0.8 µM); 0.79 in assay [1] (first compound 2.53 µM); 0.617 in assay [1] (first compound 8 µM); 1.01 in assay [2] (first compound 0.08 µM); 0.992 in assay [2] (first compound 0.253 µM); 0.915 in assay [2] (first compound 0.8 µM). In addition, the relative viability in assay [2] (first compound 2.53 µM) was found to be 1; in assay [2] (first compound 8 µM), 0.977; in assay [3] (first compound 0.08 µM), 0.803; in assay [3] (first compound 0.253 µM) it was 0.748; in assay [3] (first compound 0.8 µM), 0.791; in assay [3] (first compound 2.53 µM) it was 0.79. The relative viability in assay [3] (first compound 8 µM) turned out to be 0.806.
